Experimental data as given in PubChem BioAssay AID256 (DTP/NCI, 2004).
Values joined by “and” are separate entries in the source; they are usually repeats but may differ in a detail not shown here. Identical values can stand only once. Inconclusive results and toxic doses are left out.

System: CD2F1 mice, L1210 leukemia ip, survival T/C
Test: NCI In Vivo Anticancer Drug Screen. Data for tumor model L1210 Leukemia (intraperitoneal) in CD2F1 (CDF1) mice
Details: higher = longer survival
Procedure: The antitumor activity of compounds was measured in mice bearing transplantable tumors. Survival or tumor size were measured and the results are expressed as the measurement made in the treated group (T) divided by the measurement made in the vehicle treated control group (C). The tumor model used in this assay is L1210 Leukemia (intraperitoneal) in CD2F1 (CDF1) mice

[1] = endpoint: median survival time, dose: 12.5 mg/kg/injection, schedule: Q01DX005 (ip), vehicle: water
[2] = endpoint: median survival time, dose: 25.0 mg/kg/injection, schedule: Q01DX005 (ip), vehicle: water
[3] = endpoint: median survival time, dose: 50.0 mg/kg/injection, schedule: Q01DX005 (ip), vehicle: water
[4] = endpoint: median survival time, dose: 100.0 mg/kg/injection, schedule: Q01DX005 (ip), vehicle: water
[5] = endpoint: median survival time, dose: 200.0 mg/kg/injection, schedule: Q01DX005 (ip), vehicle: water
[6] = endpoint: mean survival time, dose: 100.0 mg/kg/injection, schedule: Q01DX001 (ip), vehicle: saline
[7] = endpoint: mean survival time, dose: 100.0 mg/kg/injection, schedule: Q01DX001 (ip), vehicle: Klucel (hydroxypropylcellulose) (HPC)
[8] = endpoint: mean survival time, dose: 200.0 mg/kg/injection, schedule: Q01DX001 (ip), vehicle: Klucel (hydroxypropylcellulose) (HPC)
[9] = endpoint: mean survival time, dose: 100.0 mg/kg/injection, schedule: Q01DX009 (ip), vehicle: saline with Tween-80
[10] = endpoint: mean survival time, dose: 100.0 mg/kg/injection, schedule: Q04DX003 (ip), vehicle: saline with Tween-80
[11] = endpoint: mean survival time, dose: 200.0 mg/kg/injection, schedule: Q04DX003 (ip), vehicle: saline with Tween-80
[12] = endpoint: mean survival time, dose: 400.0 mg/kg/injection, schedule: Q04DX003 (ip), vehicle: saline with Tween-80

## CCc1nc(N)nc(N)c1-c1ccc(Cl)c(N=[N+]=[N-])c1
endpoint: median survival time, dose: 12.5 mg/kg/injection, schedule: Q01DX009 (ip), vehicle: distilled water + Tween-80
  T/C: 100 % of control
endpoint: median survival time, dose: 25.0 mg/kg/injection, schedule: Q01DX009 (ip), vehicle: distilled water + Tween-80
  T/C: 101 % of control and 102 % of control
endpoint: median survival time, dose: 50.0 mg/kg/injection, schedule: Q01DX009 (ip), vehicle: distilled water + Tween-80
  T/C: 102 % of control and 107 % of control
endpoint: median survival time, dose: 100.0 mg/kg/injection, schedule: Q01DX009 (ip), vehicle: distilled water + Tween-80
  T/C: 113 % of control (2×) and 96 % of control

## O=c1nc(NCc2ccco2)ccn1C1OC(CO)C(O)C1O (centres undefined)
[1]
  T/C: 98 % of control
[2]
  T/C: 106 % of control
[3]
  T/C: 112 % of control
[4]
  T/C: 112 % of control
[5]
  T/C: 108 % of control

## CCCCCOC(=N)CC(=O)C(C)(C)C
[6]
  T/C: 94 % of control
endpoint: mean survival time, dose: 200.0 mg/kg/injection, schedule: Q01DX001 (ip), vehicle: saline
  T/C: 94 % of control
endpoint: mean survival time, dose: 400.0 mg/kg/injection, schedule: Q01DX001 (ip), vehicle: saline
  T/C: 97 % of control

## CCCCCC[Si]
endpoint: mean survival time, dose: 75.0 mg/kg/injection, schedule: Q01DX009 (ip), vehicle: saline with Tween-80
  T/C: 94 % of control
endpoint: mean survival time, dose: 150.0 mg/kg/injection, schedule: Q01DX009 (ip), vehicle: saline with Tween-80
  T/C: 94 % of control
endpoint: mean survival time, dose: 300.0 mg/kg/injection, schedule: Q01DX009 (ip), vehicle: saline with Tween-80
  T/C: 98 % of control

## CCC1(CC)NC(=O)N(CCOS(C)(=O)=O)C1=O
endpoint: mean survival time, dose: 50.0 mg/kg/injection, schedule: Q01DX001 (ip), vehicle: Klucel (hydroxypropylcellulose) (HPC)
  T/C: 110 % of control
[7]
  T/C: 93 % of control
[8]
  T/C: 93 % of control

## CC(C)(C)OC(=O)N/N=C/c1ccc2c(c1)CCC2
[7]
  T/C: 101 % of control
[8]
  T/C: 101 % of control
endpoint: mean survival time, dose: 400.0 mg/kg/injection, schedule: Q01DX001 (ip), vehicle: Klucel (hydroxypropylcellulose) (HPC)
  T/C: 104 % of control

## CCOc1ccc(/C=C/c2cc[n+](C)cc2)cc1OC
[6]
  T/C: 103 % of control

## Br/C=C(\Br)C[N+]12CN3CN(CN(C3)C1)C2
endpoint: mean survival time, dose: 25.0 mg/kg/injection, schedule: Q01DX009 (ip), vehicle: saline with Tween-80
  T/C: 107 % of control
endpoint: mean survival time, dose: 50.0 mg/kg/injection, schedule: Q01DX009 (ip), vehicle: saline with Tween-80
  T/C: 105 % of control
[9]
  T/C: 104 % of control

## COC1(C)CCC(=O)O1 (centres undefined)
endpoint: mean survival time, dose: 100.0 mg/kg/injection, schedule: Q04DX003 (ip), vehicle: saline
  T/C: 96 % of control
endpoint: mean survival time, dose: 200.0 mg/kg/injection, schedule: Q04DX003 (ip), vehicle: saline
  T/C: 96 % of control
endpoint: mean survival time, dose: 400.0 mg/kg/injection, schedule: Q04DX003 (ip), vehicle: saline
  T/C: 101 % of control

## O=S(CC(O)c1ccccc1)c1ccccc1 (centres undefined)
[10]
  T/C: 93 % of control
[11]
  T/C: 102 % of control

## Nc1ncn(C2OC(COC(=O)c3ccccc3)C(OC(=O)c3ccccc3)C2OC(=O)c2ccccc2)c(=O)n1 (centres undefined)
endpoint: mean survival time, dose: 1.56 mg/kg/injection, schedule: Q01DX009 (ip), vehicle: saline
  T/C: 108 % of control
endpoint: mean survival time, dose: 6.25 mg/kg/injection, schedule: Q01DX009 (ip), vehicle: saline
  T/C: 164 % of control and 170 % of control
endpoint: mean survival time, dose: 12.5 mg/kg/injection, schedule: Q01DX009 (ip), vehicle: saline
  T/C: 205 % of control and 227 % of control
endpoint: mean survival time, dose: 25.0 mg/kg/injection, schedule: Q01DX009 (ip), vehicle: saline
  T/C: 115 % of control and 124 % of control
endpoint: mean survival time, dose: 50.0 mg/kg/injection, schedule: Q01DX009 (ip), vehicle: saline
  T/C: 91 % of control and 93 % of control

## COc1ccc2c(C)cc(C)nc2n1
endpoint: mean survival time, dose: 75.0 mg/kg/injection, schedule: Q01DX001 (ip), vehicle: other
  T/C: 95 % of control
endpoint: mean survival time, dose: 150.0 mg/kg/injection, schedule: Q01DX001 (ip), vehicle: other
  T/C: 104 % of control
endpoint: mean survival time, dose: 300.0 mg/kg/injection, schedule: Q01DX001 (ip), vehicle: other
  T/C: 104 % of control

## Nc1cn[nH]c(=O)c1
endpoint: mean survival time, dose: 100.0 mg/kg/injection, schedule: Q01DX001 (ip), vehicle: carboxymethylcellulose (CMC)
  T/C: 102 % of control
endpoint: mean survival time, dose: 200.0 mg/kg/injection, schedule: Q01DX001 (ip), vehicle: carboxymethylcellulose (CMC)
  T/C: 100 % of control
endpoint: mean survival time, dose: 400.0 mg/kg/injection, schedule: Q01DX001 (ip), vehicle: carboxymethylcellulose (CMC)
  T/C: 92 % of control

## CC(C)(O)CCC(C)(C)O
[10]
  T/C: 106 % of control
[11]
  T/C: 101 % of control
[12]
  T/C: 103 % of control

## CC(=O)N(C)O
endpoint: median survival time, dose: 12.5 mg/kg/injection, schedule: Q01DX009 (ip), vehicle: saline with Tween-80
  T/C: 102 % of control
endpoint: median survival time, dose: 25.0 mg/kg/injection, schedule: Q01DX009 (ip), vehicle: saline with Tween-80
  T/C: 102 % of control and 103 % of control
endpoint: median survival time, dose: 50.0 mg/kg/injection, schedule: Q01DX009 (ip), vehicle: saline with Tween-80
  T/C: 102 % of control and 103 % of control
endpoint: median survival time, dose: 100.0 mg/kg/injection, schedule: Q01DX009 (ip), vehicle: saline with Tween-80
  T/C: 106 % of control
endpoint: median survival time, dose: 200.0 mg/kg/injection, schedule: Q01DX009 (ip), vehicle: saline with Tween-80
  T/C: 156 % of control
endpoint: median survival time, dose: 400.0 mg/kg/injection, schedule: Q01DX009 (ip), vehicle: saline with Tween-80
  T/C: 176 % of control

## O=C1c2ccccc2-c2ccc3c4ccc5c6c(ccc(c7ccc1c2c73)c64)C(=O)c1ccccc1-5
[9]
  T/C: 89 % of control
[10]
  T/C: 90 % of control
endpoint: mean survival time, dose: 200.0 mg/kg/injection, schedule: Q01DX009 (ip), vehicle: saline with Tween-80
  T/C: 89 % of control
[11]
  T/C: 87 % of control
endpoint: mean survival time, dose: 400.0 mg/kg/injection, schedule: Q01DX009 (ip), vehicle: saline with Tween-80
  T/C: 93 % of control
[12]
  T/C: 96 % of control

## OCc1cc(Cl)cc(Cl)c1O
endpoint: mean survival time, dose: 100.0 mg/kg/injection, schedule: Q01DX009 (ip), vehicle: other
  T/C: 93 % of control
endpoint: mean survival time, dose: 100.0 mg/kg/injection, schedule: Q04DX003 (ip), vehicle: other
  T/C: 92 % of control
endpoint: mean survival time, dose: 200.0 mg/kg/injection, schedule: Q01DX009 (ip), vehicle: other
  T/C: 93 % of control
endpoint: mean survival time, dose: 200.0 mg/kg/injection, schedule: Q04DX003 (ip), vehicle: other
  T/C: 92 % of control

## CCCCS(=O)C(Cl)CCC (centres undefined)
[10]
  T/C: 97 % of control
[11]
  T/C: 100 % of control

## Cc1ccc(C(=O)c2ccc(C)cc2)cc1
endpoint: mean survival time, dose: 100.0 mg/kg/injection, schedule: Q01DX009 (ip), vehicle: saline
  T/C: 90 % of control
endpoint: mean survival time, dose: 100.0 mg/kg/injection, schedule: Q04DX002 (ip), vehicle: saline
  T/C: 93 % of control
endpoint: mean survival time, dose: 200.0 mg/kg/injection, schedule: Q01DX009 (ip), vehicle: saline
  T/C: 93 % of control
endpoint: mean survival time, dose: 200.0 mg/kg/injection, schedule: Q04DX002 (ip), vehicle: saline
  T/C: 95 % of control
endpoint: mean survival time, dose: 400.0 mg/kg/injection, schedule: Q01DX009 (ip), vehicle: saline
  T/C: 93 % of control
endpoint: mean survival time, dose: 400.0 mg/kg/injection, schedule: Q04DX002 (ip), vehicle: saline
  T/C: 95 % of control

## O=c1nc(N2CCCC2)ccn1C1OC(CO)C(O)C1O (centres undefined)
[1]
  T/C: 100 % of control
[2]
  T/C: 101 % of control
[3]
  T/C: 108 % of control
[4]
  T/C: 101 % of control
[5]
  T/C: 104 % of control

## O=C(COc1c(Cl)cc(Cl)cc1Cl)Nc1ccc2c(c1)C(=O)c1ccccc1C2=O
endpoint: mean survival time, dose: 25.0 mg/kg/injection, schedule: Q04DX002 (ip), vehicle: saline with Tween-80
  T/C: 98 % of control
endpoint: mean survival time, dose: 50.0 mg/kg/injection, schedule: Q04DX002 (ip), vehicle: saline with Tween-80
  T/C: 98 % of control
endpoint: mean survival time, dose: 100.0 mg/kg/injection, schedule: Q04DX002 (ip), vehicle: saline with Tween-80
  T/C: 94 % of control

## COC1=CCC2C(=O)C=CC(=O)C2C1 (centres undefined)
endpoint: mean survival time, dose: 12.5 mg/kg/injection, schedule: Q01DX005 (ip), vehicle: Klucel (hydroxypropylcellulose) (HPC)
  T/C: 95 % of control
endpoint: mean survival time, dose: 25.0 mg/kg/injection, schedule: Q01DX005 (ip), vehicle: Klucel (hydroxypropylcellulose) (HPC)
  T/C: 95 % of control
endpoint: mean survival time, dose: 50.0 mg/kg/injection, schedule: Q01DX005 (ip), vehicle: Klucel (hydroxypropylcellulose) (HPC)
  T/C: 93 % of control
endpoint: mean survival time, dose: 100.0 mg/kg/injection, schedule: Q01DX005 (ip), vehicle: Klucel (hydroxypropylcellulose) (HPC)
  T/C: 91 % of control
endpoint: mean survival time, dose: 200.0 mg/kg/injection, schedule: Q01DX005 (ip), vehicle: Klucel (hydroxypropylcellulose) (HPC)
  T/C: 90 % of control

## N#CC(C#N)=NNc1cccc(Cl)c1Cl
endpoint: mean survival time, dose: 5.0 mg/kg/injection, schedule: Q04DX003 (ip), vehicle: saline with Tween-80
  T/C: 106 % of control
endpoint: mean survival time, dose: 10.0 mg/kg/injection, schedule: Q04DX003 (ip), vehicle: saline with Tween-80
  T/C: 104 % of control
endpoint: mean survival time, dose: 20.0 mg/kg/injection, schedule: Q04DX003 (ip), vehicle: saline with Tween-80
  T/C: 101 % of control
